Measured values published in the supplement of paper PMC10307832.

What was measured:
Assay in all cases: relative viability (nuclei count vs DMSO), 5 days (fraction); higher = more cells survive
[1] = compound: CS(=O)(=O)c1ccc(-c2cnc(N)c(C(=O)Nc3ccccc3)n2)cc1 [VE-821] + C[C@@H](Oc1cc(-c2cnn(C3CCNCC3)c2)cnc1N)c1c(Cl)ccc(F)c1Cl [Crizotinib] (partner 1 µM)
In short: (§1)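 Relative viability divides the nuclei count in treated wells by that in vehicle wells. Lung cancer cell lines were seeded in 1536-well plates, dosed by pin tool the next day, and fixed and stained after 5 days in one step with final 0.05% Triton X-100, 1% formaldehyde and 1 ug/ml Hoechst. Dosing was a single drug or a fixed anchor-drug dose plus five library-drug doses (not always all listed) in √10 steps, and values are medians of duplicate plates imaged at 4×.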

[2] = compound: CS(=O)(=O)c1ccc(C(=O)Nc2ccc(Cl)c(-c3ccccn3)c2)c(Cl)c1 [Vismodegib] + CC(=O)c1c(C)c2cnc(Nc3ccc(N4CCNCC4)cn3)nc2n(C2CCCC2)c1=O [Palbociclib] (partner 0.5 µM)
In short: as §1

[3] = compound: N#CC[C@H](C1CCCC1)n1cc(-c2ncnc3[nH]ccc23)cn1 [Ruxolitinib] + O=C(CCCCCCC(=O)Nc1ccccc1)NO [Vorinostat] (partner 1 µM)
In short: as §1

NCI-H1755
relative viability ([1]; first compound 0.08 µM): 0.969 | relative viability ([1]; first compound 0.253 µM): 0.841 | relative viability ([1]; first compound 0.8 µM): 0.69 | relative viability ([1]; first compound 2.53 µM): 0.835 | relative viability ([1]; first compound 8 µM): 0.722 | relative viability ([2]; first compound 0.08 µM): 0.49 | relative viability ([2]; first compound 0.253 µM): 0.456 | relative viability ([2]; first compound 0.8 µM): 0.409 | relative viability ([2]; first compound 2.53 µM): 0.368 | relative viability ([2]; first compound 8 µM): 0.502 | relative viability ([3]; first compound 0.08 µM): 0.749 | relative viability ([3]; first compound 0.253 µM): 0.713 | relative viability ([3]; first compound 0.8 µM): 0.766 | relative viability ([3]; first compound 2.53 µM): 0.712 | relative viability ([3]; first compound 8 µM): 0.61

NCI-H1666
relative viability ([1]; first compound 0.08 µM): 1.03 | relative viability ([1]; first compound 0.253 µM): 1.06 | relative viability ([1]; first compound 0.8 µM): 1.1 | relative viability ([1]; first compound 2.53 µM): 0.895 | relative viability ([1]; first compound 8 µM): 0.635 | relative viability ([2]; first compound 0.08 µM): 0.634 | relative viability ([2]; first compound 0.253 µM): 0.678 | relative viability ([2]; first compound 0.8 µM): 0.637 | relative viability ([2]; first compound 2.53 µM): 0.624 | relative viability ([2]; first compound 8 µM): 0.691 | relative viability ([3]; first compound 0.08 µM): 1.05 | relative viability ([3]; first compound 0.253 µM): 1.07 | relative viability ([3]; first compound 0.8 µM): 1.1 | relative viability ([3]; first compound 2.53 µM): 1.08 | relative viability ([3]; first compound 8 µM): 1.14

NCI-H2085
relative viability ([1]; first compound 0.08 µM): 1.02 | relative viability ([1]; first compound 0.253 µM): 0.755 | relative viability ([1]; first compound 0.8 µM): 0.824 | relative viability ([1]; first compound 2.53 µM): 0.954 | relative viability ([1]; first compound 8 µM): 0.755 | relative viability ([2]; first compound 0.08 µM): 0.459 | relative viability ([2]; first compound 0.253 µM): 0.474 | relative viability ([2]; first compound 0.8 µM): 0.483 | relative viability ([2]; first compound 2.53 µM): 0.467 | relative viability ([2]; first compound 8 µM): 0.502 | relative viability ([3]; first compound 0.08 µM): 0.865 | relative viability ([3]; first compound 0.253 µM): 0.802 | relative viability ([3]; first compound 0.8 µM): 0.891 | relative viability ([3]; first compound 2.53 µM): 0.667 | relative viability ([3]; first compound 8 µM): 0.695

BEN
relative viability ([1]; first compound 0.08 µM): 0.952 | relative viability ([1]; first compound 0.253 µM): 0.847 | relative viability ([1]; first compound 0.8 µM): 0.688 | relative viability ([1]; first compound 2.53 µM): 0.835 | relative viability ([1]; first compound 8 µM): 0.796 | relative viability ([2]; first compound 0.08 µM): 0.455 | relative viability ([2]; first compound 0.253 µM): 0.483 | relative viability ([2]; first compound 0.8 µM): 0.469 | relative viability ([2]; first compound 2.53 µM): 0.479 | relative viability ([2]; first compound 8 µM): 0.512 | relative viability ([3]; first compound 0.08 µM): 0.524 | relative viability ([3]; first compound 0.253 µM): 0.557 | relative viability ([3]; first compound 0.8 µM): 0.653 | relative viability ([3]; first compound 2.53 µM): 0.519 | relative viability ([3]; first compound 8 µM): 0.586

NCI-H661
relative viability ([1]; first compound 0.08 µM): 1.08 | relative viability ([1]; first compound 0.253 µM): 0.942 | relative viability ([1]; first compound 0.8 µM): 1.05 | relative viability ([1]; first compound 2.53 µM): 0.997 | relative viability ([1]; first compound 8 µM): 1.06 | relative viability ([2]; first compound 0.08 µM): 0.446 | relative viability ([2]; first compound 0.253 µM): 0.432 | relative viability ([2]; first compound 0.8 µM): 0.439 | relative viability ([2]; first compound 2.53 µM): 0.39 | relative viability ([2]; first compound 8 µM): 0.405 | relative viability ([3]; first compound 0.08 µM): 0.833 | relative viability ([3]; first compound 0.253 µM): 0.822 | relative viability ([3]; first compound 0.8 µM): 0.839 | relative viability ([3]; first compound 2.53 µM): 0.792 | relative viability ([3]; first compound 8 µM): 0.802

LCLC-97TM1
relative viability ([1]; first compound 0.08 µM): 0.537 | relative viability ([1]; first compound 0.253 µM): 0.381 | relative viability ([1]; first compound 0.8 µM): 0.413 | relative viability ([1]; first compound 2.53 µM): 0.632 | relative viability ([1]; first compound 8 µM): 0.174 | relative viability ([2]; first compound 0.08 µM): 0.202 | relative viability ([2]; first compound 0.253 µM): 0.208 | relative viability ([2]; first compound 0.8 µM): 0.263 | relative viability ([2]; first compound 2.53 µM): 0.203 | relative viability ([2]; first compound 8 µM): 0.213 | relative viability ([3]; first compound 0.08 µM): 0.741 | relative viability ([3]; first compound 0.253 µM): 0.604 | relative viability ([3]; first compound 0.8 µM): 0.734 | relative viability ([3]; first compound 2.53 µM): 0.722 | relative viability ([3]; first compound 8 µM): 0.63

HCC-827
relative viability ([1]; first compound 0.08 µM): 0.989 | relative viability ([1]; first compound 0.253 µM): 1.01 | relative viability ([1]; first compound 0.8 µM): 0.94 | relative viability ([1]; first compound 2.53 µM): 1.02 | relative viability ([1]; first compound 8 µM): 0.898 | relative viability ([2]; first compound 0.08 µM): 0.222 | relative viability ([2]; first compound 0.253 µM): 0.517 | relative viability ([2]; first compound 0.8 µM): 0.449 | relative viability ([2]; first compound 2.53 µM): 0.446 | relative viability ([2]; first compound 8 µM): 0.481 | relative viability ([3]; first compound 0.253 µM): 0.871 | relative viability ([3]; first compound 0.8 µM): 0.767 | relative viability ([3]; first compound 2.53 µM): 0.751 | relative viability ([3]; first compound 8 µM): 0.84

NCI-H1734
relative viability ([1]; first compound 0.08 µM): 0.827 | relative viability ([1]; first compound 0.253 µM): 0.649 | relative viability ([1]; first compound 0.8 µM): 0.585 | relative viability ([1]; first compound 2.53 µM): 0.726 | relative viability ([1]; first compound 8 µM): 0.541 | relative viability ([2]; first compound 0.08 µM): 0.372 | relative viability ([2]; first compound 0.253 µM): 0.348 | relative viability ([2]; first compound 0.8 µM): 0.364 | relative viability ([2]; first compound 2.53 µM): 0.255 | relative viability ([2]; first compound 8 µM): 0.358 | relative viability ([3]; first compound 0.08 µM): 0.886 | relative viability ([3]; first compound 0.253 µM): 0.806 | relative viability ([3]; first compound 0.8 µM): 0.902 | relative viability ([3]; first compound 2.53 µM): 0.797 | relative viability ([3]; first compound 8 µM): 0.863

NCI-H1651
relative viability ([1]; first compound 0.08 µM): 0.844 | relative viability ([1]; first compound 0.253 µM): 0.914 | relative viability ([1]; first compound 0.8 µM): 0.853 | relative viability ([1]; first compound 2.53 µM): 0.837 | relative viability ([1]; first compound 8 µM): 0.872 | relative viability ([2]; first compound 0.08 µM): 0.463 | relative viability ([2]; first compound 0.253 µM): 0.511 | relative viability ([2]; first compound 0.8 µM): 0.502 | relative viability ([2]; first compound 2.53 µM): 0.51 | relative viability ([2]; first compound 8 µM): 0.54 | relative viability ([3]; first compound 0.08 µM): 0.601 | relative viability ([3]; first compound 0.253 µM): 0.52 | relative viability ([3]; first compound 0.8 µM): 0.523 | relative viability ([3]; first compound 2.53 µM): 0.472 | relative viability ([3]; first compound 8 µM): 0.573

NCI-H2170
relative viability ([1]; first compound 0.08 µM): 1.29 | relative viability ([1]; first compound 0.253 µM): 1.26 | relative viability ([1]; first compound 0.8 µM): 1.11 | relative viability ([1]; first compound 2.53 µM): 0.655 | relative viability ([1]; first compound 8 µM): 0.776 | relative viability ([2]; first compound 0.08 µM): 0.432 | relative viability ([2]; first compound 0.253 µM): 0.387 | relative viability ([2]; first compound 0.8 µM): 0.469 | relative viability ([2]; first compound 2.53 µM): 0.379 | relative viability ([2]; first compound 8 µM): 0.418 | relative viability ([3]; first compound 0.08 µM): 0.804 | relative viability ([3]; first compound 0.253 µM): 0.796 | relative viability ([3]; first compound 0.8 µM): 0.889 | relative viability ([3]; first compound 2.53 µM): 0.794 | relative viability ([3]; first compound 8 µM): 0.65

NCI-H1975
relative viability ([1]; first compound 0.08 µM): 1.02 | relative viability ([1]; first compound 0.253 µM): 0.944 | relative viability ([1]; first compound 0.8 µM): 0.777 | relative viability ([1]; first compound 2.53 µM): 0.758 | relative viability ([1]; first compound 8 µM): 0.652 | relative viability ([2]; first compound 0.08 µM): 0.666 | relative viability ([2]; first compound 0.253 µM): 0.521 | relative viability ([2]; first compound 0.8 µM): 0.662 | relative viability ([2]; first compound 2.53 µM): 0.542 | relative viability ([2]; first compound 8 µM): 0.559 | relative viability ([3]; first compound 0.08 µM): 0.736 | relative viability ([3]; first compound 0.253 µM): 0.633 | relative viability ([3]; first compound 0.8 µM): 0.691 | relative viability ([3]; first compound 2.53 µM): 0.59 | relative viability ([3]; first compound 8 µM): 0.483
